What was measured:
[1] = tested on: another carcinoma which does not express the EGF receptor; conditions: cited from earlier work
[2] = tested on: transplanted human mammary carcinoma which expresses epidermal growth factor receptor tyrosine kinase (EGFR); conditions: EGFR-expressing carcinoma in athymic nude mice; cited from earlier work
[3] = hygroscopic stability of the sesquisuccinate complex; format: physicochemical; conditions: solid complex; relevant to weight changes during manufacture of capsules or tablets

Row | Compound | growth of carcinoma not expressing the EGF receptor [1] | growth of transplanted human mammary carcinoma [2] | hygroscopic stability [3]
1 | O=CN/C=C/c1cc(O)ccc1O [erbstatin] | without effect on the growth | selectively attenuates the growth | 
2 | COCC(=O)NC/C=C/c1ccc2ncnc(Nc3ccc(Oc4ccc(C)nc4)c(C)c3)c2c1 [sesquisuccinate complex, E-2-Methoxy-N-(3-{4-[3-methyl-4-(6-methyl-pyridin-3-yloxy)-phenylamino]-quinazolin-6-yl}-allyl)-acetamide] |  |  | substantially hygroscopically stable
